Values after ≈ are worked out from the molar mass of the structure shown.
Tests used:
[1] = target: T1, Mabε (M. abscessus F-ATP synthase subunit ε) (Mycobacteroides abscessus, UniProt B1MLW3); experiment: NMR titration of Mabε with MgATP; assay type: binding, Mycobacterium abscessus; settings: molar ratio of Mabε to MgATP of 1:10
T1 construct: made in house; host or cells: Escherichia coli C41 (DE3)
Description: In thermophilic Bacillus PS3, Bacillus subtilis and chloroplasts, the C terminus of E is described as a mobile regulatory element, altering its conformation in response to nucleotide conditions or the ion motive force (IMF). ATP binding in E of thermophilic Bacillus PS3 and Bacillus subtilis forces the C-terminal helices into a hairpin conformation, which extends in the absence of the nucleotide, leading to an inhibited ATP hydrolysis state. Here, we used the high-quality NMR spectra of Mabε and performed NMR titration experiments in the presence of MgATP (molar ratio of Mabε to MgATP of 1:10). […] ATP binding of the M. smegmatis subunit E was also not observed in the recent cryo-EM structure of the M. smegmatis F-ATP synthase (Guo, H. et al., Nature 2021, 589, 143-147), underlining that the mycobacterial E subunits are not regulated via nucleotide binding to this rotary subunit.

[2] = system: intracellular ATP synthesis of M. abscessus subsp. abscessus; experiment: Whole-cell ATP measurement (BacTiter-Glo), intracellular ATP synthesis inhibition; assay type: cell-based, Mycobacterium abscessus subsp. abscessus; settings: Mycobacteroides abscessus, CAMH medium, 24 h, read-out: inhibitory concentration (IC50) for intracellular ATP levels
Protocol: Clear 96-well flat-bottom cell culture plates (Nunc) were filled with 100 μL of CAMH medium in each well. The compound was added to the first well in each row to create two times the desired highest final concentration. Subsequently, a […] twofold serial dilution was carried out starting from the first well in each row. Mab, which was grown to mid-exponential phase, was diluted to an optical density at 600 nm (OD600) of 0.1; 100 μL of the diluted culture was added to each well to create a final OD600 of 0.05 in all the wells. The plates were incubated at 37° C. on a standing incubator for 24 h. At the end of the incubation period, the samples were measured for their intrabacterial ATP content by employing the BacTiter-Glo microbial cell viability assay (Promega), which was carried out according to the manufacturer's instructions as described previously (Hotra, A. et al., Angew. Chem. Int. Ed. Engl. 2020, 59, 13295-13304). […] Luminescence was measured with Cytation 5 multi-mode reader after 10 min of incubation of the plate in the dark at room temperature. The background luminescence reading was subtracted from the luminescence readings of all the samples. The ATP amount is directly proportional to the relative luminescence units. […]
The similar IC50- and MIC50 values determined, indicate that ATP synthesis catalyzed by the F-ATP synthase is the major cause of cell growth inhibition.

[3] = target: T1, Mabε (M. abscessus F-ATP synthase subunit ε); experiment: 1H-15N-HSQC NMR titration and R2 relaxation of Mabε with compound; assay type: binding, Mycobacterium abscessus; settings: 1:5 molar ratio of Mabε and Ep1MabF1; residues V9, A10, R13, E14, G68-I72, V77, I79-A81
Protocol: All NMR experiments were carried out on a BrukerAvance 700-MHz spectrometer, which was equipped with a cryoprobe at 298 K.
To confirm that Mabε is Ep1MabF1's target, a ^1H-^15N-HSQC NMR titration experiment in the presence (1:5 molar ratio of Mabε and Ep1MabF1) and absence of the compound was performed. Significant changes in chemical shift were (CSP >0.15 ppm) detected for the backbone resonances of amino acids V9, A10, R13, E14, G68-172, V77 and 179-A81 (FIGS. 14C and 15). […] In addition, we measured R2 relaxation data in the presence of Ep1MabF1 and calculated the changes of R2 values between the compound-free and compound-bound protein.

[4] = system: M. abscessus subsp. abscessus ATCC 19977; experiment: Growth inhibition dose-response assay, broth microdilution in CAMH medium; assay type: cell-based, Mycobacterium abscessus subsp. abscessus; settings: Mycobacteroides abscessus, ATCC19977; M. abscessus subsp. abscessus ATCC 19977, CAMH medium; concentration that inhibits 50% of growth; read-out: minimum inhibitory concentration (MIC50), growth inhibition
Protocol: The M. abscessus subsp. abscessus ATCC 19977 strain was used. The Mab strain was maintained in CAMH broth, which was prepared according to the manufacturer's instructions. The growth inhibition dose-response assay was carried out using the broth microdilution method as described previously (Moreira, W., Aziz, D. B. & Dick T., Front. Microbiol. 2016, 7, 199). The MIC50 reported represents the concentration that inhibits 50% of growth compared with the untreated culture.

T1 sequence (B1MLW3 2-121): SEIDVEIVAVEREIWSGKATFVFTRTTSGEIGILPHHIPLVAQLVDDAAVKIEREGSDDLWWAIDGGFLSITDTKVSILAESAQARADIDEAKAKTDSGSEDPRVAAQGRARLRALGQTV

| Compound | chemical shift change of Mabε in 15N HSQC after addition of nucleotide (binding) [1] | IC50 [2] [µM] | chemical shift perturbation (CSP) of Mabε backbone resonances [3] [ppm] | MIC50 [4] [µM] |
| --- | --- | --- | --- | --- |
| Nc1ncnc2c1ncn2[C@@H]1O[C@H](COP(=O)(O)OP(=O)([O-])OP(=O)([O-])O)[C@@H](O)[C@H]1O.[Mg+2] [MgATP] | no obvious chemical shift was observed |  |  |  |
| Cc1cccc(Cc2nc3ccccc3n2CCC(=O)NCc2ccccn2)c1 [Ep1MabF1, 3-(2-(3-methylbenzyl)-1H-benzo[d]imidazol-1-yl)-N-(pyridin-2-ylmethyl)propanamide] |  | 600 ± 30 | > 0.15 | 420 ± 14 (≈ 161 µg/mL) |

Source: patent US20240390351A1, “MYCOBACTERIUM ABSCESSUS GROWTH INHIBITOR AND MODEL” (priority 2021, published 2024)
